Data on 4 molecules can be found in ChEMBL document CHEMBL1159220, “Additional dolabellane diterpenes from the Caribbean gorgonian octocoral Eunicea laciniata” (J Nat Prod, 1995).

Structures are written as SMILES. Values after ≈ are worked out from the molar mass of the structure shown.

The subject of the assay is HeLa. Briefly: Cytotoxicity against human HeLa cells. Type of assay: functional, cell-based.
As a reminder, the IC50 is the concentration that inhibits the measured activity by half. As for `C/C1=C/C(=O)[C@]2(C)CC(=O)[C@H](C(C)C)[C@H]2CC/C(C)=C\CC1` [EDUDIONE], the IC50 was > 100 µg/mL.
The result for `CC(C)=C1CC[C@@]2(C)C(=O)/C=C(/C)CC/C=C(/C)CC[C@H]12` [EDUENONE] reads 50 µg/mL (≈ 175 µM).
To `C=C(C)[C@@]1(O)CC[C@@]2(C)C/C=C(\C)CC/C=C(\C)CC[C@@H]21` [EDUNOL] belongs 25 µg/mL (≈ 86.7 µM); to `CC(C)=C1CC[C@@]2(C)C(=O)C[C@H](C)CC/C=C(\C)CC[C@H]12` [EDUNONE], 25 µg/mL (≈ 86.7 µM).
